Emax and EC50 data for 20 compounds are collected here from patent US20240368150A1 (Hoffmann-La Roche Inc., priority 2021, published 2024).

The structures appear in SMILES notation. Read-outs that look alike come from different tables or passages of the source.

Test [1] has as its system primary human T-cells. Nature of the test: Proliferation assay after 5 days (CellTiter-Glo, CD3 stimulation; PBS counter screen). It is filed as cell-based. The note with it: T-cell, 120 h, CD3 stimulation; for Emax: 5 days, normalized to reference compound A1 as stimulator control = 100%, DMSO neutral control, read-out: Emax proliferation (% activation); for EC50: primary human T-cells, CellTiter-Glo after 5 days, EC50 of fitted sigmoidal curve, read-out: Tcell Proliferation CD3 EC50. In short, it runs like this:
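Primary human T-cells, with or without CD3 stimulation, exposed to compounds for 5 days; cell number read as ATP by CellTiter-Glo 2.0 luminescence after 45 min equilibration and 15 min reagent incubation at room temperature. Compounds activating unstimulated cells or reducing viability were flagged.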
In general terms: ATP-based viability assays read luminescence as a measure of living cells.

For test [2], the system named is primary human T-cells.
Experimental: As readouts for T-cell activation, IL2 secretion after 24 hours and proliferation after 5 days was measured. Increases in IL2 secretion and proliferation upon compound treatment were assessed as the % of the maximum of reference compound A1. […] As a counter screen and to make sure that no unwanted TCR-independent activation was triggered, PBS conditions were run for all compounds.
For coating of plates, PBS++ with PBS−− or PBS++ with CD3 antibody (concentration depending on donor and determined by CD3 titrations) was added 100 μl/well to Poly-D Lysine coated 96-well plates. Plates were sealed and incubated at room temperature for 3 hours on a table-top rocking platform. After incubation, plates were washed once with PBS−− and filled with 40 μl/well culture medium only. Compounds were then added (see next section) to medium only plates. After 3 hours of culturing the T-cells, cells were filtered through a cell strainer (Miltenyi Biotech, #130-041-407), counted again and concentration was adjusted to 1.25 Mio/ml.
Cells were then seeded 80 μl/well to the 40 μl/well including dispensed compounds according to plate layout. By adding cells, compounds were further diluted 1:3, and resulting in 100 k cells/120 μl/well. After 24 hours 40 μl of supernatant was collected carefully from the top while not disturbing the cells and transferred into a round bottom 96 well plate. Collected and frozen supernatant was used for detection of IL2 using the IL-2 Human ProQuantum Immunoassay Kit (Invitrogen) or using the Human IL-2 ELISA Kit (Thermo Fisher).
Compounds were added in a 5 or 6pt dose response with the Tecan D300e Digital Dispenser, all conditions 3 times more concentrated than the end-concentration, since cells are added afterwards (80 μl cells to 40 μl prepared medium with treatment). The DR was starting at 20 μM or 10 μM final top concentration and a dilution factor of 3.333. The positive control was the reference compound A1 that was added in a dose response as well, additionally to 3 wells of only 20 μM representing the positive stimulator control. All wells were normalized with DMSO to a final concentration of 0.6% (0.2% end-concentration).
The immunoassay is done following the manufacturer's manual (Invitrogen, #A35603). Additional information: For the immunoassay, MicroAmp™ EnduraPlate™ Optical 384-Well plates are used. Frozen supernatant is thawed and centrifuged for 5 minutes at 1000×g, both steps at 4° C. After centrifugation, required sample amount is taken from the top, and in a separate LightCycler V-bottom plate (working plate) diluted with assay dilution buffer, dilution factor depending on the PBS or CD3 condition but at least 1:3. IL-2 standard and blanks are prepared in the same V-bottom plate, standard with a range of 0.0128-5000 pg/ml (extended version). After preparation, 5 μl of sample dilutions or standard/blanks are transferred to the optical 384-well plate (assay plate) and the 10 μl reaction protocol is being followed. For measurement, the QuantStudio 12K Flex system is used.
ELISA is done following the manufacturer's manual (Thermo Fisher Scientific, #88-7025-88). Additional information: For the ELISA Nunc MaxiSorp 96 well plates are used. Frozen supernatant is thawed and centrifuged for 5 minutes at 1000×g, both steps at 4° C. After that, required sample amount is taken from the top, and in a separate V-bottom plate diluted with ELISA diluent, dilution factor depending on the PBS or CD3 condition. IL-2 standard and blanks are prepared in the same V-bottom plate. After preparation, 50 μl of sample dilutions and 100 μl of standard or blanks are transferred to the Nunc plates.
CD3 and PBS plates were analysed separately in Genedata Screener using Roche Normalization PCT_POS_CTRL with DMSO set as Neutral Control and 20 μM of the reference compound A1 set as Stimulator Control/100%.
For CD3 conditions EC50 and Emax of the fitted sigmoidal curve were reported.

With `CC(C)(C)c1nnc(-c2cc3c(cc2Br)S(=O)(=O)C[C@H](N)C(=O)N3Cc2ccc(Cl)cc2)o1` [Example 271, (3R)-3-amino-8-bromo-7-(5-tert-butyl-1,3,4-oxadiazol-2-yl)-5-[(4-chlorophenyl)methyl]-1,1-dioxo-2,3-dihydro-1λ^6,5-benzothiazepin-4-one], in the test on primary human T-cells [1] (Homo sapiens), the Emax was 91% and the EC50 stood at 3.19 µM. In addition, the EC50 in the test with primary human T-cells [2] is 4810 nM.

With `CCc1cnn(-c2cc3c(cc2F)S(=O)(=O)C[C@H](N)C(=O)N3Cc2ccc(Cl)cc2)c1` [Example 284, (3R)-3-amino-5-[(4-chlorophenyl)methyl]-7-(4-ethylpyrazol-1-yl)-8-fluoro-1,1-dioxo-2,3-dihydro-1λ^6,5-benzothiazepin-4-one], in the test on primary human T-cells [1] (Homo sapiens), the Emax came to 30% and the EC50 was 5.49 µM. For the same compound, in the test with primary human T-cells [2], the EC50 was greater than 20000 nM.

In the case of `CC1(c2nnc(-c3cc4c(cc3F)S(=O)(=O)C[C@H](N)C(=O)N4Cc3ccc(Cl)cc3)o2)CCNCC1` [Example 161, (3R)-3-amino-5-[(4-chlorophenyl)methyl]-8-fluoro-7-[5-(4-methyl-4-piperidyl)-1,3,4-oxadiazol-2-yl]-1,1-dioxo-2,3-dihydro-1λ^6,5-benzothiazepin-4-one], in the test on primary human T-cells [1] (Homo sapiens), the Emax came to 73% and the EC50 was 5.48 µM. The same compound gave an EC50 in the test on primary human T-cells [2] of 1150 nM.

As for `N[C@H]1CS(=O)(=O)c2cc(F)c(-c3nnc(NCC(F)(F)F)o3)cc2N(Cc2ccc(Cl)cc2)C1=O` [Example 487, (3R)-3-amino-5-[(4-chlorophenyl)methyl]-8-fluoro-1,1-dioxo-7-[5-(2,2,2-trifluoroethylamino)-1,3,4-oxadiazol-2-yl]-2,3-dihydro-1λ^6,5-benzothiazepin-4-one], in the test on primary human T-cells [1] (Homo sapiens), the Emax was 112% and the EC50 was 1.19 µM. In addition, the EC50 in the test with primary human T-cells [2] worked out at 8600 nM.

Consider `COC(F)(c1nnc(-c2ccc3c(c2)N(Cc2ccc(OC(F)(F)F)cc2)C(=O)[C@@H](N)CS3(=O)=O)o1)C(F)(F)F` (stereo partly drawn) [Example 424, (3R)-3-amino-1,1-dioxo-7-[5-(1,2,2,2-tetrafluoro-1-methoxy-ethyl)-1,3,4-oxadiazol-2-yl]-5-[[14-(trifluoromethoxy)phenyl]methyl]-2,3-dihydro-1λ^6,5-benzothiazepin-4-one], for which, in the test with primary human T-cells [1] (Homo sapiens), the Emax stood at 88%. For the same compound, the EC50 in the test on primary human T-cells [1] (Homo sapiens) came to 0.0723 µM; in the test with primary human T-cells [2] it was 69.4 nM.

For the compound `COC(=O)N1CC2CC(c3nnc(-c4ccc5c(c4)N(Cc4ccc(OC(F)(F)C(F)F)cc4)C(=O)[C@@H](N)CS5(=O)=O)o3)(C2)C1` [Example 443, Methyl 1-[5-[(3R)-3-amino-1,1,4-trioxo-5-[[4-(1,1,2,2-tetrafluoroethoxy)phenyl]methyl]-2,3-dihydro-1λ^6,5-benzothiazepin-7-yl]-1,3,4-oxadiazol-2-yl]-3-azabicyclo[3.1.1]heptane-3-carboxylate], in the test on primary human T-cells [1] (Homo sapiens), the Emax was 97% and the EC50 was 3.85 µM. Besides, the EC50 in the test on primary human T-cells [2] is greater than 10000 nM.

On to `CC(C)(C)c1ccn(-c2cc3c(cc2F)S(=O)(=O)C[C@H](N)C(=O)N3Cc2ccc(Cl)cc2)n1` [Example 283, (3R)-3-amino-7-(3-tert-butylpyrazol-1-yl)-5-[(4-chlorophenyl)methyl]-8-fluoro-1,1-dioxo-2,3-dihydro-1λ^6,5-benzothiazepin-4-one], for which, in the test with primary human T-cells [1] (Homo sapiens), the Emax came to 67% and the EC50 came to 5.49 µM. The compound further showed an EC50 with primary human T-cells [2] of 1010 nM.

With `COC(=O)N1CC2CC(c3nc(-c4cc5c(cc4F)S(=O)(=O)C[C@H](N)C(=O)N5Cc4ccc(OC(F)(F)F)cc4)no3)(C2)C1` [Example 335, methyl 1-[3-[(3R)-3-amino-8-fluoro-1,1,4-trioxo-5-[[4-(trifluoromethoxy)phenyl]methyl]-2,3-dihydro-1λ^6,5-benzothiazepin-7-yl]-1,2,4-oxadiazol-5-yl]-3-azabicyclo[3.1.1]heptane-3-carboxylate], the Emax in the test with primary human T-cells [1] (Homo sapiens) was 161%. The same compound gave an EC50 in the test on primary human T-cells [2] of 819 nM.

On to `CCc1nc(-c2cc3c(cc2F)S(=O)(=O)C[C@H](N)C(=O)N3Cc2ccc(Cl)cc2)n[nH]1` [Example 38, (3R)-3-amino-5-[(4-chlorophenyl)methyl]-7-(5-ethyl-1H-1,2,4-triazol-3-yl)-8-fluoro-1,1-dioxo-2,3-dihydro-1λ^6,5-benzothiazepin-4-one], for which, in the test on primary human T-cells [1] (Homo sapiens), the Emax turned out to be 50% and the EC50 is greater than 20 µM. The compound also registered an EC50 with primary human T-cells [2] greater than 20000 nM.

Regarding `Cc1ccc(-c2nnc(-c3ccc4c(c3)N(Cc3ccc(Cl)cc3)C(=O)[C@@H](N)CS4(=O)=O)o2)cc1` [Example 377, (3R)-3-amino-5-[(4-chlorophenyl)methyl]-1,1-dioxo-7-[5-(p-tolyl)-1,3,4-oxadiazol-2-yl]-2,3-dihydro-1λ^6,5-benzothiazepin-4-one], in the test with primary human T-cells [1] (Homo sapiens), the Emax stood at 38% and the EC50 amounted to 0.319 µM. Further, the EC50 with primary human T-cells [2] was 1720 nM.

`CN1CC[C@H](n2nnc(-c3cc4c(cc3F)S(=O)(=O)C[C@H](N)C(=O)N4Cc3ccc(Cl)cc3)n2)C1` [Example 9, (3R)-3-amino-5-[(4-chlorophenyl)methyl]-8-fluoro-1,1-dioxo-7-[2-[(3S)-1-methylpyrrolidin-3-yl]tetrazol-5-yl]-2,3-dihydro-1λ^6,5-benzothiazepin-4-one]: the Emax in the test on primary human T-cells [1] (Homo sapiens) was 63%. The figures for the EC50 in the test with primary human T-cells [1] (Homo sapiens) and with primary human T-cells [2] were 4.66 µM and 1320 nM, respectively.

With `N[C@H]1CS(=O)(=O)c2cc(F)c(-c3noc(C(N)(C4CCOCC4)C(F)(F)F)n3)cc2N(Cc2ccc(Cl)cc2)C1=O` (stereo partly drawn) [Example 294, (3R)-3-amino-7-[5-(1-amino-2,2,2-trifluoro-1-tetrahydropyran-4-yl-ethyl)-1,2,4-oxadiazol-3-yl]-5-[(4-chlorophenyl)methyl]-8-fluoro-1,1-dioxo-2,3-dihydro-1λ^6,5-benzothiazepin-4-one], in the test on primary human T-cells [1] (Homo sapiens), the Emax was 143% and the EC50 stood at 0.261 µM. Further, the EC50 in the test on primary human T-cells [2] is 374 nM.

Consider `CC(C)(CNC1COC1)c1nnc(-c2cc3c(cc2F)S(=O)(=O)C[C@H](N)C(=O)N3Cc2ccc(Cl)cc2)o1` [Example 156, (3R)-3-amino-5-[(4-chlorophenyl)methyl]-7-[5-[1,1-dimethyl-2-(oxetan-3-ylamino)ethyl]-1,3,4-oxadiazol-2-yl]-8-fluoro-1,1-dioxo-2,3-dihydro-1lambda6,5-benzothiazepin-4-one], for which, in the test with primary human T-cells [1] (Homo sapiens), the Emax turned out to be 135% and the EC50 was 8.13 µM. Also, the EC50 with primary human T-cells [2] is 3340 nM.

Regarding `N[C@H]1CS(=O)(=O)c2cc(F)c(-c3nnc(NC4CNCC(F)(F)C4)o3)cc2N(Cc2ccc(Cl)cc2)C1=O` (stereo partly drawn) [Example 489, (3R)-3-amino-5-[(4-chlorophenyl)methyl]-7-[5-[(5,5-difluoro-3-piperidyl)amino]-1,3,4-oxadiazol-2-yl]-8-fluoro-1,1-dioxo-2,3-dihydro-1λ^6,5-benzothiazepin-4-one], in the test with primary human T-cells [1] (Homo sapiens), the Emax amounted to 55% and the EC50 worked out at 7.24 µM. The EC50 with primary human T-cells [2] stood at 4060 nM.

Consider `CN(C)Cc1nc(-c2cc3c(cc2F)S(=O)(=O)C[C@H](N)C(=O)N3Cc2ccc(Cl)cc2)no1` [Example 325, (3R)-3-amino-5-[(4-chlorophenyl)methyl]-7-[5-[(dimethylamino)methyl]-1,2,4-oxadiazol-3-yl]-8-fluoro-1,1-dioxo-2,3-dihydro-1λ^6,5-benzothiazepin-4-one], for which, in the test with primary human T-cells [1] (Homo sapiens), the Emax was 96% and the EC50 was found to be 0.869 µM. In the test on primary human T-cells [2], this compound yielded an EC50 of 455 nM.

On to `N[C@H]1CS(=O)(=O)c2ccc(-c3nnc(C(F)(F)C(F)(F)F)o3)cc2N(Cc2ccc(OC(F)(F)F)cc2)C1=O` [Example 415, (3R)-3-amino-1,1-dioxo-7-[5-(1,1,2,2,2-pentafluoroethyl)-1,3,4-oxadiazol-2-yl]-5-[[4-(trifluoromethoxy)phenyl]methyl]-2,3-dihydro-1λ^6,5-benzothiazepin-4-one], for which, in the test with primary human T-cells [1] (Homo sapiens), the Emax is 64% and the EC50 was 6.23 µM. For the same compound, the EC50 with primary human T-cells [2] was determined as 443 nM.

As to `N[C@H]1CS(=O)(=O)c2ccc(-c3nnc(C(F)C(F)(F)F)o3)cc2N(Cc2ccc(Cl)cc2)C1=O` (stereo partly drawn) [Example 369, (3R)-3-amino-5-[(4-chlorophenyl)methyl]-1,1-dioxo-7-[5-(1,2,2,2-tetrafluoroethyl)-1,3,4-oxadiazol-2-yl]-2,3-dihydro-1λ^6,5-benzothiazepin-4-one], the Emax with primary human T-cells [1] (Homo sapiens) is 114%. In addition, the EC50 is 0.466 µM in the test with primary human T-cells [1] and 1700 nM in the test with primary human T-cells [2].

On to `CN1CC(n2cc(-c3cc4c(cc3F)S(=O)(=O)C[C@H](N)C(=O)N4Cc3ccc(Cl)cc3)cn2)CC(F)(F)C1` (stereo partly drawn) [Example 281, (3R)-3-amino-5-[(4-chlorophenyl)methyl]-7-[1-(5,5-difluoro-1-methyl-3-piperidyl)pyrazol-4-yl]-8-fluoro-1,1-dioxo-2,3-dihydro-1λ^6,5-benzothiazepin-4-one], for which, in the test on primary human T-cells [1] (Homo sapiens), the Emax turned out to be 89% and the EC50 is 1.04 µM. Further, the EC50 in the test on primary human T-cells [2] is greater than 10000 nM.

For the compound `CC(C)(C)c1nnc(-c2ccc3c(c2)N(Cc2ccc(OCC4CC4)cc2)C(=O)[C@@H](N)CS3(=O)=O)o1` [Example 431, (3R)-3-amino-7-(5-tert-butyl-1,3,4-oxadiazol-2-yl)-5-[[4-(cyclopropylmethoxy)phenyl]methyl]-1,1-dioxo-2,3-dihydro-1λ^6,5-benzothiazepin-4-one], in the test on primary human T-cells [1] (Homo sapiens), the Emax came to 110% and the EC50 was 1.93 µM. In the test on primary human T-cells [2], this compound had an EC50 of 4080 nM.

`CN(C)c1nnc(-c2cc3c(cc2F)S(=O)(=O)C[C@H](N)C(=O)N3Cc2ccc(Cl)cc2)o1` [Example 465, (3R)-3-amino-5-[(4-chlorophenyl)methyl]-7-[5-(dimethylamino)-1,3,4-oxadiazol-2-yl]-8-fluoro-1,1-dioxo-2,3-dihydro-1λ^6,5-benzothiazepin-4-one]: in the test on primary human T-cells [1] (Homo sapiens), the Emax was 100%. Moreover, the EC50 was determined as 0.171 µM in the test on primary human T-cells [1] (Homo sapiens) and 1170 nM in the test on primary human T-cells [2].
